This is an account of results in article PMC9093036, “Discovery of METTL3 Small Molecule Inhibitors by Virtual Screening of Natural Products” (Frontiers in Pharmacology, 2022).

Molecules are shown by their SMILES.

The test deals with T1, METTL3 (Homo sapiens, UniProt Q86U44).
T1 construct: METTL3-METTL14 complex (wild type); with METTL14
Kind of test: in vitro methyltransferase assay with omission of components, m6A by LC-MS/MS. The class given is biochemical. From the text: in vitro methyltransferase assay with omission of components, m6A by LC-MS/MS on METTL3 | METTL[…]TL14 (wild type), SAM, and RNA are essential for m^6A formation

T1 sequence (Q86U44 2-580): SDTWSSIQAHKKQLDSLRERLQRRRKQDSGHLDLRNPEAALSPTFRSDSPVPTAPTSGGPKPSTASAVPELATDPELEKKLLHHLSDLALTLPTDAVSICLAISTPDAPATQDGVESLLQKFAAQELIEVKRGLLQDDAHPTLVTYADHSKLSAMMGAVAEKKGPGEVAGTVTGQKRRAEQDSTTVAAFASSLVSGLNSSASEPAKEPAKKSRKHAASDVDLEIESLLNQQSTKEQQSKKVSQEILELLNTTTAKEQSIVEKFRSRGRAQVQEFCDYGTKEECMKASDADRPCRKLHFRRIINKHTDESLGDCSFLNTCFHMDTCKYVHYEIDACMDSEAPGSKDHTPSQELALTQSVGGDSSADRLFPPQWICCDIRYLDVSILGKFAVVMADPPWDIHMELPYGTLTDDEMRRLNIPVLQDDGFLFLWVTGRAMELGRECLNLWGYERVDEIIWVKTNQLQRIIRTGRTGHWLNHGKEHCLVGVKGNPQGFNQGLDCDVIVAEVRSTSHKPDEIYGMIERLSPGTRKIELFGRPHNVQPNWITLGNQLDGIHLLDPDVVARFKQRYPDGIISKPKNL
T1 sequence (Q9HCE5 whole entry partner): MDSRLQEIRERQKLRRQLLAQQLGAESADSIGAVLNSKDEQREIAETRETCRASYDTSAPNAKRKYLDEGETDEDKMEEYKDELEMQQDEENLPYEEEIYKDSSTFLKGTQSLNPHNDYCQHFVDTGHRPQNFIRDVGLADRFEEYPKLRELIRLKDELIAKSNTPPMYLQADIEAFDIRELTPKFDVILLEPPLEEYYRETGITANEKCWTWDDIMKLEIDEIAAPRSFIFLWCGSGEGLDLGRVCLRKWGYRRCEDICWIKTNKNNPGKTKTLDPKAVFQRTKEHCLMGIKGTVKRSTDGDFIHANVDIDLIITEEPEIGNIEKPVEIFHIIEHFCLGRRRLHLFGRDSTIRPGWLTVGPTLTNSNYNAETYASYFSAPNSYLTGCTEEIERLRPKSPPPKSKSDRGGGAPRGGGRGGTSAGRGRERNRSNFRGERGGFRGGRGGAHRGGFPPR

With `C[S+](CC[C@H](N)C(=O)[O-])C[C@H]1O[C@@H](n2cnc3c(N)ncnc32)[C@H](O)[C@@H]1O` (stereo partly shown) [SAM], the “components essential for m6A formation” value was “METTL3-METTL14 (wild type), SAM, and RNA are essential for m^6A formation”.
